Measured values from PubChem BioAssay (NCI).
Several values for one entry are separate records, joined by “and”; a condition that tells them apart may be missing. Equal values may be shown once.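 Each compound was tested at five concentrations against cells in 96-well plates for 48 hours. At the GI50, growth is halved. At the TGI there is no net growth.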

Tested on: OVCAR-4 ovarian
Assay: NCI tumour cell line growth inhibition, 48 h

Structure (SMILES) | TGI | GI50
CN(C)c1ccc(C2SCC(=O)N2c2ccc(Oc3ccc(Cl)cc3)c(Cl)c2)cc1 (configuration not stated) | 69 µM | –
CN(C)CCOC1(Cc2ccc(F)cc2)CCC(C(C)(C)C)CC1 (configuration not stated) | 15 µM and 22.5 µM | 4.33 µM and 9.3 µM
Nc1ccc(C(=O)N2CCC[C@H]2CO)c(N)c1 | > 100 µM | –
CC1=C(CO)C(=O)O[C@@H]([C@@H](CO)[C@H]2CCC3C4C[C@@H](O)[C@@]5(O)CC=CC(=O)[C@]5(C)C4CC[C@@]32C)C1 (some centres not stated) | > 100 µM | –
CSc1cnc2ccccc2c1SC1CN(Cc2ccccc2)c2ccccc2C1=O (configuration not stated) | > 100 µM | –
C=C(Cl)C(C)(Cl)CCC(Br)C(C)(C)Cl (configuration not stated) | 33.1 µM | –
CCNC(=O)Nc1cccc(NC(=O)NCC)n1 | > 100 µM | –

Tested on: SF-539 CNS
Assay: NCI tumour cell line growth inhibition, 48 h

Structure (SMILES) | TGI | GI50
CC12CCC(O)CC1CCC1C2CCC2(C)C(C(=O)CC(O)C(F)(F)F)CCC12 (configuration not stated) | > 92.9 µM | –
CC(C)(C)OC(=O)NCCCNC1(c2cc3ccccc3s2)CCCCC1 | 34.2 µM | –
C=CCOc1ccc(C2(O)c3ccccc3C3=NCCCN32)cc1 (configuration not stated) | > 100 µM | –
CCC/C(Cl)=N\OC(=O)Nc1ccc(OC(F)(F)F)cc1 | 33.3 µM | –
C[N+]12CCCCC1C(CN1C(=O)Cc3c4ccccc4c(c4ccccc34)CC1=O)CCC2 (configuration not stated) | > 100 µM | –
CC(=O)O[C@H]1CC[C@@]2(C)C(=CC[C@H]3[C@@H]4C[C@H](N5CCOCC5)[C@H](OC(C)=O)[C@@]4(C)CC[C@@H]32)C1 | > 100 µM | –
CCC1(C)C=Cc2c(cc(O)c3c(=O)c4ccccc4n(C)c23)O1 (configuration not stated) | > 10 µM | –
CC(C)(Cl)C(Br)CCC(=CCCl)CBr (mixture of isomers) | 3.96 µM | –
CCN1CCC(O)(/C=C/c2ccc(C)cc2C)C(C(=O)/C=C/c2ccc(C)cc2C)C1 (configuration not stated) | 4.18 µM | –
O=[N+]([O-])/C(C(Cl)=C(Cl)Cl)=C(\N1CCCCC1)n1cncn1 | 31.4 µM | –
O=C1c2cccnc2-c2nccc3c2c1nc1cc(Br)ccc13 | 0.709 µM | –
NC(CCC(=O)NC(CSCC1C(=O)Nc2ccccc21)C(=O)NCC(=O)O)C(=O)O (configuration not stated) | 18.3 µM | –
NNC(=O)CSc1nc2ccccc2c(=O)n1N | > 100 µM | –
C=C([C@@]1(O)C[C@H]2[C@H](CCC2(OC)OC)[C@@H]2c3ccccc3O[C@@H]21)[Si](C)(C)C | > 100 µM | –
COc1ccc2c(c1)CCN1CCc3ccccc3CC21 (configuration not stated) | > 100 µM | –
Oc1cccc(-c2nc3cc(F)ccc3s2)c1 | 55.8 µM | –
CN(C)c1ccc(C2SCC(=O)N2c2ccc(Oc3ccc(Cl)cc3)c(Cl)c2)cc1 (configuration not stated) | 40.4 µM | –
CN(C)CCOC1(Cc2ccc(F)cc2)CCC(C(C)(C)C)CC1 (configuration not stated) | 19.1 µM and 27.1 µM | 5.73 µM and 13.4 µM
Nc1ccc(C(=O)N2CCC[C@H]2CO)c(N)c1 | > 100 µM | –
CC1=C(CO)C(=O)O[C@@H]([C@@H](CO)[C@H]2CCC3C4C[C@@H](O)[C@@]5(O)CC=CC(=O)[C@]5(C)C4CC[C@@]32C)C1 (some centres not stated) | > 100 µM | –
CSc1cnc2ccccc2c1SC1CN(Cc2ccccc2)c2ccccc2C1=O (configuration not stated) | > 100 µM | –
C=C(Cl)C(C)(Cl)CCC(Br)C(C)(C)Cl (configuration not stated) | 71.7 µM | –
CCNC(=O)Nc1cccc(NC(=O)NCC)n1 | > 100 µM | –

Tested on: SNB-19 CNS
Assay: NCI tumour cell line growth inhibition, 48 h

Structure (SMILES) | TGI
CC12CCC(O)CC1CCC1C2CCC2(C)C(C(=O)CC(O)C(F)(F)F)CCC12 (configuration not stated) | 69.6 µM
CC(C)(C)OC(=O)NCCCNC1(c2cc3ccccc3s2)CCCCC1 | 27.2 µM
COc1ccc(N2C(=O)CSC2c2c[nH]c3ccccc23)cc1 (configuration not stated) | > 100 µM
C=CCOc1ccc(C2(O)c3ccccc3C3=NCCCN32)cc1 (configuration not stated) | > 100 µM
CCC/C(Cl)=N\OC(=O)Nc1ccc(OC(F)(F)F)cc1 | > 58.7 µM
C[N+]12CCCCC1C(CN1C(=O)Cc3c4ccccc4c(c4ccccc34)CC1=O)CCC2 (configuration not stated) | > 100 µM
CC(=O)O[C@H]1CC[C@@]2(C)C(=CC[C@H]3[C@@H]4C[C@H](N5CCOCC5)[C@H](OC(C)=O)[C@@]4(C)CC[C@@H]32)C1 | > 100 µM
CCC1(C)C=Cc2c(cc(O)c3c(=O)c4ccccc4n(C)c23)O1 (configuration not stated) | > 10 µM
CC(C)(Cl)C(Br)CCC(=CCCl)CBr (mixture of isomers) | 6.87 µM
Nc1[nH]nc2nc3ccc(C(F)(F)F)cc3nc12 | > 100 µM
CCN1CCC(O)(/C=C/c2ccc(C)cc2C)C(C(=O)/C=C/c2ccc(C)cc2C)C1 (configuration not stated) | 20.3 µM
O=[N+]([O-])/C(C(Cl)=C(Cl)Cl)=C(\N1CCCCC1)n1cncn1 | 33.6 µM
S=C(Nc1ccc2c(c1)oc1ccccc12)c1cccnc1 | 77.7 µM
O=C1c2cccnc2-c2nccc3c2c1nc1cc(Br)ccc13 | 0.88 µM
NC(CCC(=O)NC(CSCC1C(=O)Nc2ccccc21)C(=O)NCC(=O)O)C(=O)O (configuration not stated) | > 100 µM
NNC(=O)CSc1nc2ccccc2c(=O)n1N | 44.6 µM
Cc1cc(S(=O)(=O)Nc2nc3cc(-c4ccc(Cl)cc4)sc3c(=O)n2N)c(S)cc1Cl | > 100 µM
C=C([C@@]1(O)C[C@H]2[C@H](CCC2(OC)OC)[C@@H]2c3ccccc3O[C@@H]21)[Si](C)(C)C | > 100 µM
COc1ccc2c(c1)CCN1CCc3ccccc3CC21 (configuration not stated) | > 100 µM
CN1COCc2c1ccc1cc3ccc4c(c3nc21)COCN4S(C)(=O)=O | > 100 µM
Oc1cccc(-c2nc3cc(F)ccc3s2)c1 | 99 µM
CN(C)c1ccc(C2SCC(=O)N2c2ccc(Oc3ccc(Cl)cc3)c(Cl)c2)cc1 (configuration not stated) | 54.8 µM
CN(C)CCOC1(Cc2ccc(F)cc2)CCC(C(C)(C)C)CC1 (configuration not stated) | 24.6 µM and 19.4 µM
Nc1ccc(C(=O)N2CCC[C@H]2CO)c(N)c1 | > 100 µM
CC1=C(CO)C(=O)O[C@@H]([C@@H](CO)[C@H]2CCC3C4C[C@@H](O)[C@@]5(O)CC=CC(=O)[C@]5(C)C4CC[C@@]32C)C1 (some centres not stated) | > 100 µM
CSc1cnc2ccccc2c1SC1CN(Cc2ccccc2)c2ccccc2C1=O (configuration not stated) | > 100 µM
C=C(Cl)C(C)(Cl)CCC(Br)C(C)(C)Cl (configuration not stated) | > 100 µM
CCNC(=O)Nc1cccc(NC(=O)NCC)n1 | > 100 µM

Tested on: SNB-75 CNS
Assay: NCI tumour cell line growth inhibition, 48 h

Structure (SMILES) | TGI | GI50
CC12CCC(O)CC1CCC1C2CCC2(C)C(C(=O)CC(O)C(F)(F)F)CCC12 (configuration not stated) | 81.1 µM | –
CC(C)(C)OC(=O)NCCCNC1(c2cc3ccccc3s2)CCCCC1 | 30.2 µM | –
COc1ccc(N2C(=O)CSC2c2c[nH]c3ccccc23)cc1 (configuration not stated) | > 100 µM | –
C=CCOc1ccc(C2(O)c3ccccc3C3=NCCCN32)cc1 (configuration not stated) | > 100 µM | –
CCC/C(Cl)=N\OC(=O)Nc1ccc(OC(F)(F)F)cc1 | 35.8 µM | –
C[N+]12CCCCC1C(CN1C(=O)Cc3c4ccccc4c(c4ccccc34)CC1=O)CCC2 (configuration not stated) | > 100 µM | –
CC(=O)O[C@H]1CC[C@@]2(C)C(=CC[C@H]3[C@@H]4C[C@H](N5CCOCC5)[C@H](OC(C)=O)[C@@]4(C)CC[C@@H]32)C1 | > 100 µM | –
CCC1(C)C=Cc2c(cc(O)c3c(=O)c4ccccc4n(C)c23)O1 (configuration not stated) | > 10 µM | –
CC(C)(Cl)C(Br)CCC(=CCCl)CBr (mixture of isomers) | 8.18 µM | –
Nc1[nH]nc2nc3ccc(C(F)(F)F)cc3nc12 | 41.3 µM | –
CCN1CCC(O)(/C=C/c2ccc(C)cc2C)C(C(=O)/C=C/c2ccc(C)cc2C)C1 (configuration not stated) | 36.6 µM | –
O=[N+]([O-])/C(C(Cl)=C(Cl)Cl)=C(\N1CCCCC1)n1cncn1 | 49.4 µM | –
S=C(Nc1ccc2c(c1)oc1ccccc12)c1cccnc1 | 49.7 µM | –
O=C1c2cccnc2-c2nccc3c2c1nc1cc(Br)ccc13 | 0.81 µM | –
NC(CCC(=O)NC(CSCC1C(=O)Nc2ccccc21)C(=O)NCC(=O)O)C(=O)O (configuration not stated) | 8.2 µM | –
NNC(=O)CSc1nc2ccccc2c(=O)n1N | 33 µM | –
Cc1cc(S(=O)(=O)Nc2nc3cc(-c4ccc(Cl)cc4)sc3c(=O)n2N)c(S)cc1Cl | > 100 µM | –
C=C([C@@]1(O)C[C@H]2[C@H](CCC2(OC)OC)[C@@H]2c3ccccc3O[C@@H]21)[Si](C)(C)C | > 100 µM | –
COc1ccc2c(c1)CCN1CCc3ccccc3CC21 (configuration not stated) | > 100 µM | –
CN1COCc2c1ccc1cc3ccc4c(c3nc21)COCN4S(C)(=O)=O | 67.5 µM | –
Oc1cccc(-c2nc3cc(F)ccc3s2)c1 | 39.4 µM | –
CN(C)c1ccc(C2SCC(=O)N2c2ccc(Oc3ccc(Cl)cc3)c(Cl)c2)cc1 (configuration not stated) | 50.9 µM | –
CN(C)CCOC1(Cc2ccc(F)cc2)CCC(C(C)(C)C)CC1 (configuration not stated) | 17.2 µM and 16.5 µM | 4.03 µM and 8.49 µM
Nc1ccc(C(=O)N2CCC[C@H]2CO)c(N)c1 | > 100 µM | –
CC1=C(CO)C(=O)O[C@@H]([C@@H](CO)[C@H]2CCC3C4C[C@@H](O)[C@@]5(O)CC=CC(=O)[C@]5(C)C4CC[C@@]32C)C1 (some centres not stated) | > 100 µM | –
CSc1cnc2ccccc2c1SC1CN(Cc2ccccc2)c2ccccc2C1=O (configuration not stated) | > 100 µM | –
C=C(Cl)C(C)(Cl)CCC(Br)C(C)(C)Cl (configuration not stated) | 33.5 µM | –
CCNC(=O)Nc1cccc(NC(=O)NCC)n1 | > 100 µM | –

Tested on: UO-31 renal
Assay: NCI tumour cell line growth inhibition, 48 h

Structure (SMILES) | TGI
CC12CCC(O)CC1CCC1C2CCC2(C)C(C(=O)CC(O)C(F)(F)F)CCC12 (configuration not stated) | 11.1 µM
CC(C)(C)OC(=O)NCCCNC1(c2cc3ccccc3s2)CCCCC1 | 25.4 µM
COc1ccc(N2C(=O)CSC2c2c[nH]c3ccccc23)cc1 (configuration not stated) | > 100 µM
C=CCOc1ccc(C2(O)c3ccccc3C3=NCCCN32)cc1 (configuration not stated) | > 100 µM
CCC/C(Cl)=N\OC(=O)Nc1ccc(OC(F)(F)F)cc1 | 23.3 µM
C[N+]12CCCCC1C(CN1C(=O)Cc3c4ccccc4c(c4ccccc34)CC1=O)CCC2 (configuration not stated) | > 100 µM
CC(=O)O[C@H]1CC[C@@]2(C)C(=CC[C@H]3[C@@H]4C[C@H](N5CCOCC5)[C@H](OC(C)=O)[C@@]4(C)CC[C@@H]32)C1 | > 100 µM
CCC1(C)C=Cc2c(cc(O)c3c(=O)c4ccccc4n(C)c23)O1 (configuration not stated) | > 10 µM
CC(C)(Cl)C(Br)CCC(=CCCl)CBr (mixture of isomers) | 3.42 µM
Nc1[nH]nc2nc3ccc(C(F)(F)F)cc3nc12 | 49.9 µM
CCN1CCC(O)(/C=C/c2ccc(C)cc2C)C(C(=O)/C=C/c2ccc(C)cc2C)C1 (configuration not stated) | 6.66 µM
O=[N+]([O-])/C(C(Cl)=C(Cl)Cl)=C(\N1CCCCC1)n1cncn1 | 30.8 µM
S=C(Nc1ccc2c(c1)oc1ccccc12)c1cccnc1 | > 100 µM
O=C1c2cccnc2-c2nccc3c2c1nc1cc(Br)ccc13 | 0.568 µM
NC(CCC(=O)NC(CSCC1C(=O)Nc2ccccc21)C(=O)NCC(=O)O)C(=O)O (configuration not stated) | 1.74 µM
NNC(=O)CSc1nc2ccccc2c(=O)n1N | > 100 µM
Cc1cc(S(=O)(=O)Nc2nc3cc(-c4ccc(Cl)cc4)sc3c(=O)n2N)c(S)cc1Cl | > 100 µM
C=C([C@@]1(O)C[C@H]2[C@H](CCC2(OC)OC)[C@@H]2c3ccccc3O[C@@H]21)[Si](C)(C)C | > 100 µM
COc1ccc2c(c1)CCN1CCc3ccccc3CC21 (configuration not stated) | 36 µM
CN1COCc2c1ccc1cc3ccc4c(c3nc21)COCN4S(C)(=O)=O | > 100 µM
Oc1cccc(-c2nc3cc(F)ccc3s2)c1 | 52.5 µM
CN(C)c1ccc(C2SCC(=O)N2c2ccc(Oc3ccc(Cl)cc3)c(Cl)c2)cc1 (configuration not stated) | 29.6 µM
CN(C)CCOC1(Cc2ccc(F)cc2)CCC(C(C)(C)C)CC1 (configuration not stated) | 19.2 µM and 18.2 µM
Nc1ccc(C(=O)N2CCC[C@H]2CO)c(N)c1 | > 100 µM
CC1=C(CO)C(=O)O[C@@H]([C@@H](CO)[C@H]2CCC3C4C[C@@H](O)[C@@]5(O)CC=CC(=O)[C@]5(C)C4CC[C@@]32C)C1 (some centres not stated) | 57.1 µM
CSc1cnc2ccccc2c1SC1CN(Cc2ccccc2)c2ccccc2C1=O (configuration not stated) | > 100 µM
C=C(Cl)C(C)(Cl)CCC(Br)C(C)(C)Cl (configuration not stated) | 29.3 µM
CCNC(=O)Nc1cccc(NC(=O)NCC)n1 | > 100 µM
